Here are results for 17 molecules from article PMC4343023, “Selectivity of odorant-binding proteins from the southern house mosquito tested against physiologically relevant ligands” (Frontiers in Physiology, 2015).

Like-named read-outs stand apart in the source and are kept apart here.

By IC50 is commonly meant the concentration that gives 50% inhibition. One may read the Kd as the concentration at which binding is half-saturated.

Common to all, as to assay: biochemical
Format in all cases: binding
Holding throughout (settings): for Int (fluorescence emission): residual NPN fluorescence, normalized to 100 prior to ligand, screen at 2–20 μM ligand

The target in one test is CquiOBP2 (Culex quinquefasciatus, UniProt C7BDZ6). How it is done: (§1) Binding affinity (Ban et al., [2002]) was tested with a panel of 34 compounds, including attractants, a mosquito oviposition pheromone, repellents, terpenoids and other putative mosquito attractants or repellents. Unless otherwise specified, they were purchased from Sigma-Aldrich/Fluka/Acros (St. Louis, MO). Repellents: DEET (N,N-diethyl-3-methylbenzamide), PMD (p-mentan-3,8-diol) (Bedoukian Research, Inc.), picaridin (butan-2-yl 2-(2-hydroxyethyl)piperidine-1-carboxylate), IR3535 (ethyl 3-[acetyl(butyl)amino]propanoate) (gifts from Dr. Kamal Chauhan, USDA, ARS, Beltsville), (±)-citronellal, and ethyl 2-phenylacetate. Oviposition attractants: (5R,6S)-6-acetoxy-5-hexadecanolide, MOP (Bedoukian Research, Inc.), skatole, indole, 4-methylphenol, and 4-ethylphenol. Human derived compounds: nonanal, 6-methyl-5-hepten-2-one (sulcatone). Terpenoids and other putative attractants/repellents: linalool, linalool oxide, eucalyptol, camphor, fenchone, thujone, geranyl acetate, eugenol, (Z)-3-hexenyl acetate, 1-octen-3-ol, 1-octyn-3-ol, 3-octanol, 1-hexanol, methylcyclohexanol, methyl salicylate, cyclohexanone, acetophenone, benzaldehyde, 3,5-dimethoxybenzene, 1,2-dimethoxybenzene, and 2-phenylethanol.
Sequence of CquiOBP2 (C7BDZ6 entry or part of it): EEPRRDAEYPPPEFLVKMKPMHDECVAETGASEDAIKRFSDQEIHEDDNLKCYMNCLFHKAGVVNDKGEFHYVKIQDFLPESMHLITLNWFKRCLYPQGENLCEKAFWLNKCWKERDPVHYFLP
(§2) Fluorescence spectra were recorded in a right angle configuration on a spectrofluorimeter (RF-5301, Shimadzu, Kyoto, Japan) at room temperature using a 1 cm light path fluorimeter quartz cuvette. Slit widths of 10 nm were selected for both excitation and emission. N-phenyl-1-naphthylamine (NPN, or 1-NPN) (Ban et al., [2002]) was dissolved in methanol to yield a 1 mM stock solution. The binding affinity for NPN was determined by adding aliquots of NPN into a 10 μg/ml (microgram) protein sample. NPN was excited at 337 nm and emission spectra were recorded at high speed scanning between 350 and 500 nm. All ligands used in competition experiments were dissolved in spectrophotometric grade methanol. Binding data were collected in three independent measurements. Bound ligand was evaluated from fluorescence intensity assuming that the protein was 100% active, with a stoichiometry of 1:1 (protein: ligand) at saturation. The KNPN values were estimated using Prism 5 (GraphPad Software, Inc., La Jolla, CA) by non-linear regression for a unique site of binding. The curves were linearized using Scatchard plots. Dissociation constants of the competitors were calculated according to Campanacci et al. ([2001]) from the corresponding IC50 values in the equation: Kdiss = [IC50]/1+[NPN]/KNPN, where [NPN] is the free concentration of NPN and KNPN is the dissociation constant of the complex protein/NPN.

For the next test, the target named is CquiOBP1 (Culex quinquefasciatus, UniProt Q8T6I2). How it is done: as §1, §2
Sequence of CquiOBP1 (Q8T6I2 entry or part of it): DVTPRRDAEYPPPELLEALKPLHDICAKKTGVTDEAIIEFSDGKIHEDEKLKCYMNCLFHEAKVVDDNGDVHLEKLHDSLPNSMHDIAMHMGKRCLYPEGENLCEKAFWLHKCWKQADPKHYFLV
The target of another test is CquiOBP5 (Culex quinquefasciatus, UniProt C7BDZ9). On the procedure: as §1, §2
Sequence of CquiOBP5 (C7BDZ9 entry or part of it): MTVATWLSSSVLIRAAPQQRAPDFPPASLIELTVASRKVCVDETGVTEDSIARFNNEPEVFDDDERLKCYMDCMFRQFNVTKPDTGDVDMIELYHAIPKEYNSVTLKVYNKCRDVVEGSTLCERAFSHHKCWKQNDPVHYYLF
[1] abbreviates: CquiOBP2, NPN displacement titration, read-out: IC50.
Where [2] appears, read: CquiOBP2, calculated from IC50 of NPN displacement, read-out: Kd.
The mark [3] stands for this setting: CquiOBP1, NPN displacement titration, read-out: IC50.
[4] abbreviates: CquiOBP1, calculated from IC50 of NPN displacement, read-out: Kd.
[5] abbreviates: CquiOBP5, NPN displacement titration, read-out: IC50.
[6] abbreviates: CquiOBP5, calculated from IC50 of NPN displacement, read-out: Kd.

For the molecule `CC1CCC(C(C)(C)O)C(O)C1` (stereo not drawn) [PMD, p-mentan-3,8-diol], the IC50 is 5.3 µM at CquiOBP2 (setting [1]), greater than 10 µM at CquiOBP1 (setting [3]) and 13.8 µM at CquiOBP5 (setting [5]). The Kd on CquiOBP2 (setting [2]) was 1.3 µM; at CquiOBP1 (setting [4]) it was greater than 6.3 µM; on CquiOBP5 (setting [6]), 9.6 µM. For the same molecule, the results for the “Int (fluorescence emission)” value at CquiOBP2 (CquiOBP2), on CquiOBP1 (CquiOBP1) and on CquiOBP5 (CquiOBP5) were 35, 80 and 61, respectively.

With `CCN(CC)C(=O)c1cccc(C)c1` [DEET, N,N-diethyl-3-methylbenzamide], the IC50 on CquiOBP2 (setting [1]), at CquiOBP1 (setting [3]) and on CquiOBP5 (setting [5]) was greater than 10 µM in each case. Moreover, the dissociation constant Kd on CquiOBP2 (setting [2]) was greater than 2.5 µM; on CquiOBP1 (setting [4]), greater than 6.3 µM; on CquiOBP5 (setting [6]) it was greater than 7 µM. The entries for the “Int (fluorescence emission)” value at CquiOBP2 (CquiOBP2), on CquiOBP1 (CquiOBP1) and on CquiOBP5 (CquiOBP5) were 96, 82 and 92, respectively.

For `CC12CCC(CC1=O)C2(C)C` (stereo not drawn) [Camphor, camphor], the IC50 at CquiOBP2 (setting [1]), at CquiOBP1 (setting [3]) and on CquiOBP5 (setting [5]) was greater than 10 µM in each case. In addition, the Kd was greater than 2.5 µM at CquiOBP2 (setting [2]), greater than 6.3 µM on CquiOBP1 (setting [4]) and greater than 7 µM at CquiOBP5 (setting [6]). The “Int (fluorescence emission)” value on CquiOBP2 (CquiOBP2) is given as 85; at CquiOBP1 (CquiOBP1), 90; on CquiOBP5 (CquiOBP5), 89.

For `O=C1CCCCC1` [Cyclohexanone, cyclohexanone], the IC50 at CquiOBP2 (setting [1]), on CquiOBP1 (setting [3]) and at CquiOBP5 (setting [5]) was greater than 10 µM throughout. Moreover, the Kd on CquiOBP2 (setting [2]) was greater than 2.5 µM; on CquiOBP1 (setting [4]), greater than 6.3 µM; on CquiOBP5 (setting [6]), greater than 7 µM. The “Int (fluorescence emission)” value turned out to be 86 on CquiOBP2 (CquiOBP2), 79 at CquiOBP1 (CquiOBP1) and 82 on CquiOBP5 (CquiOBP5).

In the case of `Cc1cc(C)cc(O)c1` [3,5-Dimethylphenol], the IC50 at CquiOBP2 (setting [1]) was 7.4 µM; on CquiOBP1 (setting [3]), greater than 10 µM; on CquiOBP5 (setting [5]) it was greater than 10 µM. Further, the Kd at CquiOBP2 (setting [2]) was 1.9 µM; at CquiOBP1 (setting [4]), greater than 6.3 µM; at CquiOBP5 (setting [6]) it was greater than 7 µM. Also, the results for the “Int (fluorescence emission)” value at CquiOBP2 (CquiOBP2), at CquiOBP1 (CquiOBP1) and on CquiOBP5 (CquiOBP5) were 40, 84 and 93, respectively.

Consider `COC(=O)c1ccccc1O` [Methyl salicylate, methyl salicylate], for which the IC50 at CquiOBP2 (setting [1]), at CquiOBP1 (setting [3]) and at CquiOBP5 (setting [5]) was greater than 10 µM each time. In addition, the equilibrium dissociation constant (Kd) at CquiOBP2 (setting [2]) is greater than 2.5 µM; on CquiOBP1 (setting [4]) it was greater than 6.3 µM; at CquiOBP5 (setting [6]) it was greater than 7 µM. Besides, the “Int (fluorescence emission)” value at CquiOBP2 (CquiOBP2) was 72; on CquiOBP1 (CquiOBP1), 87; at CquiOBP5 (CquiOBP5), 89.

`CC(C)[C@]12CC(=O)[C@H](C)[C@H]1C2` [Thujone, thujone]: the IC50 on CquiOBP2, against CquiOBP1 and against CquiOBP5 was greater than 10 µM throughout. Further, the Kd on CquiOBP2 is greater than 2.5 µM; at CquiOBP1, greater than 6.3 µM; at CquiOBP5, greater than 7 µM. In addition, the “Int (fluorescence emission)” value amounted to 87 at CquiOBP2 (CquiOBP2), 96 on CquiOBP1 (CquiOBP1) and 90 at CquiOBP5 (CquiOBP5).

Take `CC12CCC(C1)C(C)(C)C2=O` (stereo not drawn) [Fenchone, fenchone]: the IC50 on CquiOBP2 (setting [1]), at CquiOBP1 (setting [3]) and on CquiOBP5 (setting [5]) was greater than 10 µM throughout. Also, the results for the Kd on CquiOBP2 (setting [2]), on CquiOBP1 (setting [4]) and at CquiOBP5 (setting [6]) were greater than 2.5 µM, greater than 6.3 µM and greater than 7 µM, respectively. Also, the “Int (fluorescence emission)” value on CquiOBP2 (CquiOBP2) was found to be 87; on CquiOBP1 (CquiOBP1) it was 89; at CquiOBP5 (CquiOBP5), 92.

Regarding `CC12CCC(CC1)C(C)(C)O2` [Eucalyptol, eucalyptol], the IC50 at CquiOBP2 (setting [1]), on CquiOBP1 (setting [3]) and on CquiOBP5 (setting [5]) was greater than 10 µM each time. In addition, the values for the dissociation constant (Kd) on CquiOBP2 (setting [2]), at CquiOBP1 (setting [4]) and at CquiOBP5 (setting [6]) were greater than 2.5 µM, greater than 6.3 µM and greater than 7 µM, respectively. The “Int (fluorescence emission)” value worked out at 90 at CquiOBP2 (CquiOBP2), 96 at CquiOBP1 (CquiOBP1) and 73 at CquiOBP5 (CquiOBP5).

As to `C=CCc1ccc(O)c(OC)c1` [Eugenol, eugenol], the IC50 on CquiOBP2 (setting [1]) was greater than 10 µM; at CquiOBP1 (setting [3]), greater than 10 µM; at CquiOBP5 (setting [5]), 10.7 µM. The Kd at CquiOBP2 (setting [2]) was greater than 2.5 µM; at CquiOBP1 (setting [4]), greater than 6.3 µM; at CquiOBP5 (setting [6]), 7.4 µM. Also, the “Int (fluorescence emission)” value is 82 on CquiOBP2 (CquiOBP2), 72 at CquiOBP1 (CquiOBP1) and 57.5 on CquiOBP5 (CquiOBP5).

`C=CC1(C)CCC(C(C)(C)O)O1` (stereo not drawn) [Linalool oxide, linalool oxide]: the IC50 on CquiOBP2 (setting [1]), at CquiOBP1 (setting [3]) and at CquiOBP5 (setting [5]) was greater than 10 µM throughout. Moreover, the Kd on CquiOBP2 (setting [2]) was greater than 2.5 µM; on CquiOBP1 (setting [4]), greater than 6.3 µM; on CquiOBP5 (setting [6]), greater than 7 µM. In addition, the “Int (fluorescence emission)” value at CquiOBP2 (CquiOBP2) turned out to be 95; at CquiOBP1 (CquiOBP1), 92; on CquiOBP5 (CquiOBP5), 94.

Regarding `c1ccc(Nc2cccc3ccccc23)cc1` [NPN, N-phenyl-1-naphthylamine], the Kd at CquiOBP2 (direct titration of CquiOBP2 (10 μg/ml) with NPN, read-out: Kd for NPN) was 0.5 ± 0.02 µM; at CquiOBP1 (direct titration of CquiOBP1 (10 μg/ml) with NPN, read-out: Kd for NPN), 1.71 ± 0.13 µM; at CquiOBP5 (direct titration of CquiOBP5 (10 μg/ml) with NPN, read-out: Kd for NPN), 2.3 ± 0.19 µM.

For (±)-citronellal, the IC50 at CquiOBP2 (setting [1]), on CquiOBP1 (setting [3]) and at CquiOBP5 (setting [5]) was greater than 10 µM throughout. The Kd at CquiOBP2 (setting [2]) is greater than 2.5 µM; at CquiOBP1 (setting [4]), greater than 6.3 µM; at CquiOBP5 (setting [6]) it was greater than 7 µM. For the same molecule, the entries for the “Int (fluorescence emission)” value at CquiOBP2 (CquiOBP2), on CquiOBP1 (CquiOBP1) and at CquiOBP5 (CquiOBP5) were 88, 65 and 90, respectively.

Take `C=CC(O)CCCCC` (stereo not drawn) [1-Octen-3-ol, 1-octen-3-ol]: the IC50 is greater than 10 µM on CquiOBP2 (setting [1]), greater than 10 µM on CquiOBP1 (setting [3]) and 11.6 µM on CquiOBP5 (setting [5]). In addition, the Kd on CquiOBP2 (setting [2]) was greater than 2.5 µM; at CquiOBP1 (setting [4]) it was greater than 6.3 µM; on CquiOBP5 (setting [6]), 8.1 µM. The “Int (fluorescence emission)” value is given as 93 at CquiOBP2 (CquiOBP2), 69 on CquiOBP1 (CquiOBP1) and 59 on CquiOBP5 (CquiOBP5).

In the case of `CC1CCC(O)CC1` (stereo not drawn) [4-Methylcyclohexanol], the IC50 on CquiOBP2 (setting [1]), at CquiOBP1 (setting [3]) and at CquiOBP5 (setting [5]) was greater than 10 µM each time. For the same molecule, the Kd on CquiOBP2 (setting [2]) is greater than 2.5 µM; on CquiOBP1 (setting [4]), greater than 6.3 µM; on CquiOBP5 (setting [6]) it was greater than 7 µM. For the same molecule, the results for the “Int (fluorescence emission)” value on CquiOBP2 (CquiOBP2), on CquiOBP1 (CquiOBP1) and at CquiOBP5 (CquiOBP5) were 88, 88 and 93, respectively.

For `CCCCCCO` [1-Hexanol, 1-hexanol], the IC50 on CquiOBP2 (setting [1]), on CquiOBP1 (setting [3]) and at CquiOBP5 (setting [5]) was greater than 10 µM in each case. Besides, the Kd is greater than 2.5 µM at CquiOBP2 (setting [2]), greater than 6.3 µM on CquiOBP1 (setting [4]) and greater than 7 µM at CquiOBP5 (setting [6]). For the same molecule, the “Int (fluorescence emission)” value on CquiOBP2 (CquiOBP2) turned out to be 89; at CquiOBP1 (CquiOBP1), 85; on CquiOBP5 (CquiOBP5), 88.

`OCCc1ccccc1` [2-Phenylethanol, 2-phenylethanol]: the IC50 at CquiOBP2 (setting [1]), at CquiOBP1 (setting [3]) and at CquiOBP5 (setting [5]) was greater than 10 µM throughout. The Kd on CquiOBP2 (setting [2]) is greater than 2.5 µM; on CquiOBP1 (setting [4]) it was greater than 6.3 µM; at CquiOBP5 (setting [6]) it was greater than 7 µM. Besides, the “Int (fluorescence emission)” value stood at 92 at CquiOBP2 (CquiOBP2), 91 on CquiOBP1 (CquiOBP1) and 95 at CquiOBP5 (CquiOBP5).
